Measured values as given in US9279107B2, “Simplified basic media for human pluripotent cell culture” (WISCONSIN ALUMNI RESEARCH FOUNDATION, priority 2010, dated 2016).

What was measured:
Type in all cases: cell-based, human
[1] = tested on: H1 cells; assay: NANOG mRNA expression; conditions: added to DF5S; NODAL 100 ng/ml or TGF-β 2 ng/ml; compared to DF5S
Text: DF5S was used to expand H1 cells. Cells grown in DF5S were more prone to differentiate than cells grown in TeSR™. However, H1 cells could be grown for several weeks (more than 15 passages), during which the cells maintained human ES cell morphology and high levels of OCT4 expression (FIG. 1E, FIG. 1F). […] DF5S+NODAL also supported pluripotency of the two tested human iPS cell lines, as determined by high expression of the pluripotency marker OCT4. All cells (hES cells and iPS cells) grown in DF5S with either NODAL or TGF-β maintained a normal karyotype after long-term passage.

[2] = tested on: H1 cells; assay: Oct4 expression by flow cytometry as indicator of pluripotency
Procedure: As described in Example 3, human pluripotent cells, such as H1, H9, and iPS cells, could be grown and passaged over 15 times in DF5S but were prone to differentiate, such that extra care is needed to sustain pluripotency in DF5S. Because pluripotency could be maintained more easily in TeSR™, growth factors present in TeSR™ were added individually to DF5SFe used to grow H1 cells that were previously cultured in DF5S without differentiating to identify factors supporting long-term pluripotency. Cells were passaged approximately one day after reaching confluency, facilitating cell differentiation, and Oct4 expression, assessed by flow cytometry, was used as indicator of pluripotency.
Human pluripotent cells grown in DF5SFe elongated and lined up along each other, resembling a “spindle” shape just prior to differentiation. […] Thus, recombinant proteins of the TGF-β pathway were tested for their ability to support long-term pluripotency.

[3] = tested on: iPS cells; assay: Long-term pluripotency of lentiviral iPS cell lines; conditions: added to DF5SFe; TGF-β 2 ng/ml or NODAL 100 ng/ml
Text: Human ES cell lines, such as H1 and H9 have a culture history that includes exposure to various complex culture components, such as FBS, feeder cells, and knockout serum replacer. Exposure to these components could conceivably create dependency on these components and, consequently, alter cellular response to simplified media. Culture history might play a lesser role for iPS cells, derived from reprogrammed somatic cells, as derivation conditions are less complex. Therefore, different factors were tested with two original lentiviral iPS cell lines (Yu, et al., Science 318:1917 (2007)) grown in DF5SFe. Cells were transferred from MEF plates directly into DF5SFe medium for one passage and then passaged into various growth factor conditions. […] Pluripotency surface markers SSEA4, SSEA3, Tra-1-60, and Tra-1-81 were also expressed. Cells with normal karyotypes were continuously maintained for more than 20 passages. The cells were capable of forming teratomas 5-7 weeks after injection into severe combined immunodeficient (SCID) mice.

[4] = tested on: foreskin cells; assay: Reprogramming of foreskin fibroblasts to iPS cells; conditions: foreskin fibroblasts
Procedure: Available reprogramming protocols include incubation of the cells in FBS in the first several days after viral transduction or electroporation, prior to switching the cells to UM100 (U.S. Pat. No. 7,439,064, incorporated herein as if set forth in its entirety) or CM. The simplified media described in previous Examples were tested for their ability to support reprogramming.
To determine if DF5S-based media can be used for viral-free iPS cell derivation, foreskin cells were reprogrammed using a viral-free episomal vector, as described in Yu et al., Science 324:797 (2009), incorporated herein by reference as if set forth in its entirety, at hypoxic conditions (O5C10).
Plasmid combinations #6 and #19 were used for the reprogramming. In order to enhance the plasmid entry into the nucleus, ENBA mRNA was electroporated along with plasmid DNA. Around one million cells were transferred onto two 6-well plates in DF5SFeC for 5 days. Medium was then switched to DF5SFe for another 18-25 days. Cells of some of the wells were passaged for a second time using a 1:6 ratio at different time points.

[5] = tested on: patient cell lines OAT, PRPF8-2, GRC M1-29; assay: Reprogramming of adult donor cell lines with episomal vectors; conditions: TGF-β added to the reprogramming media

Substance: transforming growth factor beta [TGF-β]
- NANOG mRNA level [1]: significantly higher levels of NANOG mRNA
- Oct4 expression ([2]; DF5SFe supplemented with TGF-β at TeSR concentration (0.6 ng/ml)): low levels of Oct4 expression
- Oct4 expression ([2]; DF5SFe supplemented with TGF-β at higher concentration (1 ng/ml)): maintain high Oct4 expression
- long-term pluripotency [3]: supported long-term pluripotency of iPS cells
- number of colonies during reprogramming [4]: increased numbers of colonies
- number of true iPS cell colonies ([4]; TGF-β addition): remained low
- number of iPS clones [5]: not increased significantly
- total number of colonies [5]: increased significantly
